Where “and” joins values, the source holds several entries; their conditions need not be identical. Equal entries are not always repeated. After the bases stand the sugars from the 5' end (letter, count) and the backbone: PS all phosphorothioate, else s phosphorothioate and o phosphodiester by linkage. Methylation of C is not given here. e = 2'-O-(2-methoxyethyl) (MOE); k = constrained ethyl (cEt); d = 2'-deoxy (DNA)
Molecular target: IRF5
Settings: ASO

Row | Sequence | target mRNA inhibition (KARPAS-229, 4 µM) | further results
1 | TTATTTCTGCTCCAGG (sugars kkddddddddddkeke, PS) | 26% | 
2 | TTCTGCAGGGAGTCAG (sugars kddddddddddkekek, PS) | 4% | 
3 | CACATCTCCACATCAG (sugars k3 d9 k3 e1, PS) | 25% | 
4 | ACGAGTTATGGGAAGG (sugars k3 d10 k3, PS) | 74% and 73% | target mRNA inhibition (KARPAS-229, 0.44444 µM): 50%; target mRNA inhibition (KARPAS-229, 1.33333 µM): 54%; target mRNA inhibition (KARPAS-229, 12 µM): 81%
5 | CTGTCACATCTCCACA (sugars k3 d9 k3 e1, PS) | 28% | 
6 | ACCCAATGCAACATCC (sugars k3 d10 k3, PS) | 33% | 
7 | TTCTTGTCTAGTGTCA (sugars k3 d10 k3, PS) | 49% | 
8 | GTGTATTTCCCTGTCT (sugars k2 d9 e3 k2, PS) | 16% | 
9 | GTCTGGCCCTTTTGGA (sugars kkkddddddddkekek, PS) | 0% | 
10 | GGTTCTTGGACTCTCA (sugars kekdddddddddeekk, PS) | 60% and 66% | target mRNA inhibition (KARPAS-229, 0.44444 µM): 31%; target mRNA inhibition (KARPAS-229, 1.33333 µM): 44%; target mRNA inhibition (KARPAS-229, 12 µM): 81%
11 | AGGAGTGAGACGAGCA (sugars kkkddddddddkdkdk, PS) | 37% | 
12 | GCATTCCATATACACA (sugars kkkdddddddddkeke, PS) | 45% | 
13 | TTAAGGGCACAGCGCA (sugars k3 d10 k3, PS) | 0% | 
14 | TTGTCTAGTGTCATGG (sugars kekdddddddddeekk, PS) | 55% | 
15 | TCCAATTTTGCATTCC (sugars kddddddddddkekek, PS) | 37% | 
16 | CATCTCCACATCAGTC (sugars kkddddddddkekekk, PS) | 23% | 
17 | GTGAGTCTCAAACCAG (sugars kkddddddddddkeke, PS) | 31% | 
18 | GTTCTTGGACTCTCAA (sugars kkkddddddddkekek, PS) | 0% | 
19 | GGTCTTGACCTCCCGC (sugars kkkdddddddddkeke, PS) | 7% | 
20 | AGGAAGTGAGTCTCAA (sugars k3 d10 k3, PS) | 42% | 
21 | TTGTGACTGTATTACC (sugars k3 d10 k3, PS) | 56% | 
22 | ACCATTCTATGCCTTT (sugars kkkddddddddkekek, PS) | 15% | 
23 | TCCAATTTTGCATTCC (sugars kdddddddddkekeke, PS) | 6% | 

Row | Sequence | target mRNA inhibition (KARPAS-229, 4 µM) | further results
24 | GGTGTATTTCCCTGTC (sugars kkddddddddddkeke, PS) | 21% | 
25 | ACCATTCTATGCCTTT (sugars kkddddddddkekekk, PS) | 0% | 
26 | GAGTCATGGGCTGAGG (sugars kkddddddddddkeke, PS) | 40% | 
27 | CCAATTTTGCATTCCA (sugars k2 d9 e3 k2, PS) | 30% | 
28 | GGTTCTTGGACTCTCA (sugars k2 d11 k3, PS) | 47% | 
29 | CAGGTTCTTGGACTCT (sugars kkkdddddddddkeke, PS) | 1% | 
30 | AAGGGCACAGACGCAGG (sugars kdddddddddkekeked, PS) | 0% | 
31 | GCTTGGTCTTGACCTC (sugars kdddddddddkekeke, PS) | 17% | 
32 | ACTGACACAGGCGGAT (sugars kkddddddddddkeke, PS) | 0% | 
33 | ACATCTCCACATCAGT (sugars k3 d9 k3 e1, PS) | 11% | 
34 | TGAGTCTCAAACCAGG (sugars k2 d8 e4 k2, PS) | 0% | 
35 | TTATCTCCGTCCTGGC (sugars kkkddddddddkekek, PS) | 0% | 
36 | CACTGACACAGGCGGA (sugars kkkddddddddkekek, PS) | 0% | 
37 | AAGGGCACAGCGCAGG (sugars k3 d10 k3, PS) | 48% and 42% | 
38 | GGAAGTGAGTCTCAAA (sugars kkddddddddddkeke, PS) | 55% and 49% | target mRNA inhibition (KARPAS-229, 0.44444 µM): 6%; target mRNA inhibition (KARPAS-229, 1.33333 µM): 12%; target mRNA inhibition (KARPAS-229, 12 µM): 65%
39 | ACGAGCAAAGGGTGAG (sugars k3 d10 k3, PS) | 47% | 
40 | ACCATTCTATGCCTTT (sugars kkkdddddddddkeke, PS) | 49% | 
41 | ACCACTGTGTACCCCA (sugars k3 d10 k3, PS) | 75% and 57% | target mRNA inhibition (KARPAS-229, 0.44444 µM): 16%; target mRNA inhibition (KARPAS-229, 1.33333 µM): 41%; target mRNA inhibition (KARPAS-229, 12 µM): 65%
42 | CAATTTTGCATTCCAT (sugars k3 d10 k3, PS) | 52% | 
43 | AGCTTGGTCTTGACCT (sugars kddddddddddkekek, PS) | 0% | 
44 | CTTGGTCTTGACCTCC (sugars kekdddddddddeekk, PS) | 36% | 
45 | CCATTCTATGCCTTTT (sugars kkdddddddddkekek, PS) | 62% and 61% | target mRNA inhibition (KARPAS-229, 0.44444 µM): 29%; target mRNA inhibition (KARPAS-229, 12 µM): 81%

Reference: the OligoGym collection
